Legend:
Assay in all cases: relative viability (nuclei count vs DMSO), 5 days (fraction); higher = more cells survive
Adavosertib + Navitoclax = compound: C=CCn1c(=O)c2cnc(Nc3ccc(N4CCN(C)CC4)cc3)nc2n1-c1cccc(C(C)(C)O)n1 [Adavosertib] + CC1(C)CCC(c2ccc(Cl)cc2)=C(CN2CCN(c3ccc(C(=O)NS(=O)(=O)c4ccc(N[C@H](CCN5CCOCC5)CSc5ccccc5)c(S(=O)(=O)C(F)(F)F)c4)cc3)CC2)C1 [Navitoclax] (partner 0.5 µM)
In short: (§1)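 Lung cancer cell lines were pin-tool dosed in 1536-well plates on the day after seeding, with either a lone drug or a fixed anchor-drug dose plus five library-drug doses (not always all listed) in √10 steps. Nuclei were counted on 4× images after 5 days. Relative viability is the ratio of treated-well to vehicle-well nuclei counts, with each value a median of duplicate plates.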

Adavosertib + Phenformin = compound: C=CCn1c(=O)c2cnc(Nc3ccc(N4CCN(C)CC4)cc3)nc2n1-c1cccc(C(C)(C)O)n1 [Adavosertib] + N=C(N)NC(=N)NCCc1ccccc1 [Phenformin] (partner 250 µM)
In short: as §1

Nelarabine + Luminespib = compound: COc1nc(N)nc2c1ncn2[C@@H]1O[C@H](CO)[C@@H](O)[C@@H]1O [Nelarabine] + CCNC(=O)c1noc(-c2cc(C(C)C)c(O)cc2O)c1-c1ccc(CN2CCOCC2)cc1 [Luminespib] (partner 0.01 µM)
In short: as §1

Nelarabine + Alpelisib = compound: COc1nc(N)nc2c1ncn2[C@@H]1O[C@H](CO)[C@@H](O)[C@@H]1O [Nelarabine] + Cc1nc(NC(=O)N2CCC[C@H]2C(N)=O)sc1-c1ccnc(C(C)(C)C(F)(F)F)c1 [Alpelisib] (partner 2 µM)
In short: as §1

## NCI-H1944
Adavosertib + Navitoclax; first compound 0.01 µM
  relative viability: 1.05
Adavosertib + Navitoclax; first compound 0.03162 µM
  relative viability: 1.02
Adavosertib + Navitoclax; first compound 0.1 µM
  relative viability: 1.07
Adavosertib + Navitoclax; first compound 0.3162 µM
  relative viability: 1.02
Adavosertib + Phenformin; first compound 0.01 µM
  relative viability: 0.23
Adavosertib + Phenformin; first compound 0.03162 µM
  relative viability: 0.202
Adavosertib + Phenformin; first compound 0.1 µM
  relative viability: 0.19
Adavosertib + Phenformin; first compound 0.3162 µM
  relative viability: 0.206
Nelarabine + Luminespib; first compound 0.01 µM
  relative viability: 0.925
Nelarabine + Luminespib; first compound 0.03162 µM
  relative viability: 0.775
Nelarabine + Luminespib; first compound 0.1 µM
  relative viability: 0.793
Nelarabine + Luminespib; first compound 0.3162 µM
  relative viability: 0.73
Nelarabine + Luminespib; first compound 1 µM
  relative viability: 0.745
Nelarabine + Alpelisib; first compound 0.01 µM
  relative viability: 0.817
Nelarabine + Alpelisib; first compound 0.03162 µM
  relative viability: 0.78
Nelarabine + Alpelisib; first compound 0.1 µM
  relative viability: 0.828
Nelarabine + Alpelisib; first compound 0.3162 µM
  relative viability: 0.814
Nelarabine + Alpelisib; first compound 1 µM
  relative viability: 0.79

From the supplement of paper PMC10307832
